Values joined by “and” are separate entries in the source; they are usually repeats but may differ in a detail not shown here. Equal entries are not always repeated. Inconclusive results and toxic doses are left out. Rule for the calls: active = survival T/C of 150% or more; inactive = T/C below 125% in these data. Non-standard residues stand in square brackets, D forms with d. Residues, ends and D or L forms follow the SMILES beside them. *: point of attachment. Nle = CCCC[CH](N)C(=O)O; Cbz = O=C(OCc1ccccc1)*; OBn = c1ccc(CO*)cc1
System: BDF1 mice, P388 leukemia ip, median survival T/C
Test: NCI In Vivo Anticancer Drug Screen. Data for tumor model P388 Leukemia (intraperitoneal) in B6D2F1 (BDF1) mice
Details: endpoint: median survival time, higher = longer survival
Method in brief: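 Antitumour effect was judged in vivo: survival in drug-treated mice, normalised to that of vehicle-dosed controls, gives the reported T/C.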

[1] = dose: 25.0 mg/kg/injection, schedule: Q01DX009 (ip), vehicle: Klucel (hydroxypropylcellulose) (HPC)
[2] = dose: 50.0 mg/kg/injection, schedule: Q04DX003 (ip), vehicle: Klucel (hydroxypropylcellulose) (HPC)
[3] = dose: 100.0 mg/kg/injection, schedule: Q01DX009 (ip), vehicle: Klucel (hydroxypropylcellulose) (HPC)
[4] = dose: 100.0 mg/kg/injection, schedule: Q04DX003 (ip), vehicle: Klucel (hydroxypropylcellulose) (HPC)
[5] = dose: 50.0 mg/kg/injection, schedule: Q01DX009 (ip), vehicle: saline with Tween-80
[6] = dose: 100.0 mg/kg/injection, schedule: Q01DX009 (ip), vehicle: saline with Tween-80
[7] = dose: 100.0 mg/kg/injection, schedule: Q04DX003 (ip), vehicle: saline with Tween-80
[8] = dose: 200.0 mg/kg/injection, schedule: Q01DX009 (ip), vehicle: saline with Tween-80
[9] = dose: 200.0 mg/kg/injection, schedule: Q04DX003 (ip), vehicle: saline with Tween-80
[10] = dose: 400.0 mg/kg/injection, schedule: Q04DX003 (ip), vehicle: saline with Tween-80
[11] = dose: 50.0 mg/kg/injection, schedule: Q01DX009 (ip), vehicle: saline

Measured: T/C

CCOC(=O)CC(C)(C)NCc1ccccc1
inactive: [1] 90 % of control | dose: 25.0 mg/kg/injection, schedule: Q04DX003 (ip), vehicle: Klucel (hydroxypropylcellulose) (HPC) 108 % of control | [2] 95 % of control | [3] 95 % of control | [4] 116 % of control

CCOC(=O)Cn1cnc2cc(Cl)c([N+](=O)[O-])cc2c1=O
inactive: [2] 96 % of control | [4] 104 % of control | dose: 200.0 mg/kg/injection, schedule: Q04DX003 (ip), vehicle: Klucel (hydroxypropylcellulose) (HPC) 102 % of control | dose: 400.0 mg/kg/injection, schedule: Q04DX003 (ip), vehicle: Klucel (hydroxypropylcellulose) (HPC) 109 % of control

CCCCCCCCCCC(=O)[O][Sn]([CH](C)C)([CH](C)C)[CH](C)C
inactive: dose: 12.5 mg/kg/injection, schedule: Q01DX009 (ip), vehicle: saline + Tween-80 + alcohol 109 % of control | dose: 25.0 mg/kg/injection, schedule: Q01DX009 (ip), vehicle: saline + Tween-80 + alcohol 119 % of control

CCCCN(CCCC)CCNc1ccc(Cl)c2oc3cc(C)ccc3c(=O)c12
inactive: [5] 100 % of control | [6] 104 % of control | [7] 100 % of control | [8] 104 % of control | [9] 100 % of control

COc1ccc(CCCC(=O)O)cc1OC
inactive: [5] 108 % of control | [6] 105 % of control | [8] 103 % of control

CSC1C(=O)Nc2ccc(Cl)cc21 (stereo unspecified)
inactive: [7] 97 % of control and 108 % of control | [9] 98 % of control and 99 % of control | [10] 99 % of control and 110 % of control | dose: 600.0 mg/kg/injection, schedule: Q04DX003 (ip), vehicle: saline with Tween-80 92 % of control

N#CO
inactive: dose: 33.0 mg/kg/injection, schedule: Q01DX009 (ip), vehicle: saline 103 % of control (2×) and 113 % of control | dose: 42.0 mg/kg/injection, schedule: Q01DX009 (ip), vehicle: saline 109 % of control | [11] 96 % of control and 122 % of control | dose: 56.0 mg/kg/injection, schedule: Q01DX009 (ip), vehicle: saline 90 % of control | dose: 75.0 mg/kg/injection, schedule: Q01DX009 (ip), vehicle: saline 100 % of control and 121 % of control | dose: 100.0 mg/kg/injection, schedule: Q01DX009 (ip), vehicle: saline 109 % of control

CCOC(=O)C(NC(C)=O)(C(=O)OCC)C(C)C(=O)c1ccc(OC)c(OC)c1OCc1ccccc1 (stereo unspecified)
inactive: dose: 12.5 mg/kg/injection, schedule: Q01DX009 (ip), vehicle: saline 101 % of control | dose: 25.0 mg/kg/injection, schedule: Q01DX009 (ip), vehicle: saline 111 % of control | [11] 92 % of control | dose: 200.0 mg/kg/injection, schedule: Q01DX009 (ip), vehicle: saline 101 % of control

CCCCC(NC(=O)C1CCCN1C(=O)OCc1ccccc1)C(=O)OCc1ccccc1 (stereo not drawn) (Cbz-Pro-[Nle]-OBn; configuration not given here)
inactive: dose: 50.0 mg/kg/injection, schedule: Q01DX005 (ip), vehicle: saline with Tween-80 88 % of control | dose: 100.0 mg/kg/injection, schedule: Q01DX005 (ip), vehicle: saline with Tween-80 101 % of control | dose: 200.0 mg/kg/injection, schedule: Q01DX005 (ip), vehicle: saline with Tween-80 97 % of control

c1ccc2c(NCCCCCCNc3c4ccccc4nc4ccccc34)c3ccccc3nc2c1
inactive: dose: 0.31 mg/kg/injection, schedule: Q01DX009 (ip), vehicle: lactic acid 110 % of control | dose: 0.62 mg/kg/injection, schedule: Q01DX009 (ip), vehicle: lactic acid 123 % of control
active: dose: 1.25 mg/kg/injection, schedule: Q01DX009 (ip), vehicle: lactic acid 163 % of control | dose: 2.5 mg/kg/injection, schedule: Q01DX009 (ip), vehicle: lactic acid 180 % of control | dose: 5.0 mg/kg/injection, schedule: Q01DX009 (ip), vehicle: lactic acid 178 % of control

NC(C(=O)O)C(=O)c1ccccc1 (stereo unspecified)
inactive: dose: 100.0 mg/kg/injection, schedule: Q04DX003 (ip), vehicle: saline sonified 100 % of control | dose: 200.0 mg/kg/injection, schedule: Q04DX003 (ip), vehicle: saline sonified 100 % of control | dose: 400.0 mg/kg/injection, schedule: Q04DX003 (ip), vehicle: saline sonified 100 % of control

COC(=O)C(NC(C)=O)C(=O)OC
inactive: [3] 104 % of control | dose: 200.0 mg/kg/injection, schedule: Q01DX009 (ip), vehicle: Klucel (hydroxypropylcellulose) (HPC) 92 % of control | dose: 400.0 mg/kg/injection, schedule: Q01DX009 (ip), vehicle: Klucel (hydroxypropylcellulose) (HPC) 88 % of control

O=C(CCCCN1CCc2[nH]c3ccc(F)cc3c2C1)c1ccc(F)cc1
inactive: dose: 100.0 mg/kg/injection, schedule: Q01DX001 (ip), vehicle: Klucel (hydroxypropylcellulose) (HPC) 116 % of control | dose: 200.0 mg/kg/injection, schedule: Q01DX001 (ip), vehicle: Klucel (hydroxypropylcellulose) (HPC) 100 % of control

COC(=O)c1c(C)ccc2c(O)c3c(cc12)C(=O)c1c2c(cc(O)c1C3=O)C1(C)OC(C)(O2)C(O)C(N(C)C)C1O (stereo unspecified)
active: dose: 70.0 mg/kg/injection, schedule: Q01DX009 (ip), vehicle: Klucel (hydroxypropylcellulose) (HPC) 150 % of control
inactive: dose: 140.0 mg/kg/injection, schedule: Q01DX009 (ip), vehicle: Klucel (hydroxypropylcellulose) (HPC) 111 % of control

NC(N)=NC(N)=Nc1ccc(Cl)c(Cl)c1
inactive: dose: 25.0 mg/kg/injection, schedule: Q01DX009 (ip), vehicle: saline with Tween-80 98 % of control | [5] 121 % of control

CCCCCCCCCCCC[N+]1(CCCCCCCCCCCC)CCCC(C)C1 (stereo unspecified)
inactive: dose: 0.37 mg/kg/injection, schedule: Q01DX009 (ip), vehicle: Klucel (hydroxypropylcellulose) (HPC) 108 % of control

O=C1c2ccccc2C(=O)N1OC1CCCCO1 (stereo unspecified)
inactive: [6] 91 % of control | [7] 100 % of control | [8] 87 % of control | [9] 108 % of control | dose: 400.0 mg/kg/injection, schedule: Q01DX009 (ip), vehicle: saline with Tween-80 100 % of control | [10] 104 % of control

C[N+]1(C)N=C([O-])N(c2ccccc2Cl)C1=O
inactive: [7] 100 % of control | [9] 108 % of control | [10] 99 % of control

C1=CC23C4CCC2C2C4C4C(=C1)C3C2N1CCCCC41 (stereo unspecified)
inactive: dose: 12.5 mg/kg/injection, schedule: Q01DX009 (ip), vehicle: Klucel (hydroxypropylcellulose) (HPC) 104 % of control | [1] 100 % of control | dose: 37.5 mg/kg/injection, schedule: Q04DX003 (ip), vehicle: Klucel (hydroxypropylcellulose) (HPC) 91 % of control | dose: 50.0 mg/kg/injection, schedule: Q01DX009 (ip), vehicle: Klucel (hydroxypropylcellulose) (HPC) 100 % of control | dose: 75.0 mg/kg/injection, schedule: Q04DX003 (ip), vehicle: Klucel (hydroxypropylcellulose) (HPC) 100 % of control

COc1cc2c(cc1OC)-c1c3c(cc4c1[C@@H](C2)N(C)CC4)OCO3
inactive: dose: 12.5 mg/kg/injection, schedule: Q01DX009 (ip), vehicle: acid diluted with saline 100 % of control | dose: 25.0 mg/kg/injection, schedule: Q01DX009 (ip), vehicle: acid diluted with saline 100 % of control | dose: 50.0 mg/kg/injection, schedule: Q01DX009 (ip), vehicle: acid diluted with saline 105 % of control

CCCCCCCCCCCCn1c(C)nc2ccccc21
inactive: dose: 10.0 mg/kg/injection, schedule: Q04DX003 (ip), vehicle: saline 105 % of control | dose: 20.0 mg/kg/injection, schedule: Q04DX003 (ip), vehicle: saline 120 % of control | dose: 40.0 mg/kg/injection, schedule: Q04DX003 (ip), vehicle: saline 115 % of control | dose: 60.0 mg/kg/injection, schedule: Q04DX003 (ip), vehicle: saline 109 % of control | dose: 90.0 mg/kg/injection, schedule: Q04DX003 (ip), vehicle: saline 104 % of control | dose: 135.0 mg/kg/injection, schedule: Q04DX003 (ip), vehicle: saline 86 % of control | dose: 200.0 mg/kg/injection, schedule: Q04DX003 (ip), vehicle: saline 105 % of control | dose: 305.0 mg/kg/injection, schedule: Q04DX003 (ip), vehicle: saline 110 % of control

CN(C)CC/C=C1\c2ccccc2Sc2ccc(C(F)(F)F)cc21
inactive: dose: 9.2 mg/kg/injection, schedule: Q04DX003 (ip), vehicle: saline 112 % of control and 113 % of control | dose: 21.0 mg/kg/injection, schedule: Q04DX003 (ip), vehicle: saline 116 % of control | dose: 29.0 mg/kg/injection, schedule: Q04DX003 (ip), vehicle: saline 100 % of control | dose: 65.0 mg/kg/injection, schedule: Q01DX001 (ip), vehicle: saline 122 % of control

N#Cc1c(Nc2cccc(Cl)c2)sc(C(=O)c2cc3cc(Cl)ccc3o2)c1N
inactive: [5] 109 % of control | [6] 100 % of control | [8] 93 % of control
